Measurements published in patent publication EP4741392A1, “1H-PYRAZOLO[4,3-C]PYRIDINE COMPOUND, AND COMPOSITION THEREOF AND USE THEREOF” (Shenzhen TargetRx Co., Ltd., priority 2023, dated 2025).

What was measured:
Format in all cases: biochemical
BTK C481S = target: T1, BTK C481S (Homo sapiens, UniProt Q06187, C481S); test: Kinase activity inhibition assay (HTRF TK Kit)
T1 construct: purchased Carna 08-547
From the text: (§1) In this assay, the HTRF TK Kit (Catalog No. 62TK0PEC) provided by Cisbio was used to detect the inhibitory activity of compounds on BTK kinase, BTK T474I kinase and BTK C481 S kinase and the selectivity of compounds relative to EGFR, ITK and TEC kinases.
(§2) Reagents and consumables: BTK kinase (Invitrogen, Catalog No. PV3587), BTK C481S (Carna, Product No. 08-547), BTK T474I(SignalChem Product No. B10-12HH), ITK (Cama, Product No. 08-181), EGFR (Cama, Product No. 08-115), TEC (Carna, Product No. 08-182), HTRF-TK kit (Cisbio, Product No. 62TK0PEC), MgCl2 (Sigma, Product No. M1028), MnCl2 (Sigma, Product No. M1787), DTT (Sigma, Product No. D0632), ATP (Sigma, Product No. A7699-1g), DMSO (Sigma, Product No. D2650), 384-well plate (PE, Product No. 6008280).
(§3) The entire operation steps were carried out on ice, and the total reaction volume was 10µL. A compound (4µL), substrate and ATP (4µL), and kinase (2µL) were added in sequence to a 384-well plate, and the plate was shaken for 30 seconds. The mixture was reacted at room temperature for an appropriate time, and then the detection reagent was added. The resulting mixture was reacted at room temperature for 1 hour, and then the plate was assayed with a microplate reader. The specific steps were as follows: • a) a 1 × kinase buffer solution required for the kinase assay was calculated according to the amount of the test compound, and prepared as needed; • b) 2.5 × working concentration of a compound was prepared, 100-fold gradient concentration solutions of a compound were diluted by 40 × to the desired concentration, respectively, mixed well, and added to each well at 4 µL per well; • c) 5 × working concentration of the substrate and ATP were prepared, mixed in a ratio of 1:1 before being added to the 384-well plate, and added to each well at 4 µL per well; • d) 5 × working concentration of a kinase was prepared, 2 µL of which was added to each well; • e) the plate was shaken on a microplate shaker for 30 seconds, sealed with a sealing membrane, and the mixture was reacted at room temperature for an appropriate time; • f) 4 × working concentration of streptavidin XL-665 and TK antibody-cryptate compound were prepared, mixed in a ratio of 1:1 before being added to the 384-well plate, and added to each well at 10 µL per well; • g) the mixture was reacted at room temperature for 1 hour, and then the plate was read; • h) the wells with only substrate, ATP and 1% DMSO added but no kinase were blank control wells, and the wells with only substrate, ATP, 1% DMSO and kinase were positive control wells.
(§4) Readings: The values of 620 nm (cryptate) and 665 nm (XL665) were read with a BioTek Synerg Neo2 microplate reader, the ratio of 665/620 for each well was calculated, and the data were exported.
(§5) Data analysis: IC50 was calculated using GraphPad Prism 7.0 software.
(§6) The IC50 (half-maximal inhibitory concentration) of the compound was obtained using the following nonlinear fitting formula: Y = Bottom + (Top−Bottom)/(1+10^(∧)((LogIC50−X)*HillSlope)) [formula] • X: Log value of the compound concentration • Y: Inhibition rate (% inhibition) • Top: Maximum response • Bottom: Baseline response • HillSlope: Slope of the curve
(§7) The formula for calculating kinase inhibition rate (inhibition rate %) was: [formula]

BTK kinase = target: T2, BTK kinase (Homo sapiens, UniProt Q06187); test: Kinase activity inhibition assay (HTRF TK Kit)
T2 construct: purchased Invitrogen PV3587
From the text: as §1, §2, §3, §4, §5, §6, §7

BTK T474I = target: T3, BTK T474I (Homo sapiens, UniProt Q06187, T474I); test: Kinase activity inhibition assay (HTRF TK Kit)
T3 construct: purchased SignalChem B10-12HH
From the text: as §1, §2, §3, §4, §5, §6, §7

EGFR = target: T4, EGFR (Homo sapiens, UniProt P00533); test: Kinase activity inhibition assay (HTRF TK Kit), selectivity
T4 construct: purchased Carna 08-115
From the text: as §1, §2, §3, §4, §5, §6, §7

TEC = target: T5, TEC (Homo sapiens, UniProt P42680); test: as above
T5 construct: purchased Carna 08-182
T5 sequence (P42680 1-631): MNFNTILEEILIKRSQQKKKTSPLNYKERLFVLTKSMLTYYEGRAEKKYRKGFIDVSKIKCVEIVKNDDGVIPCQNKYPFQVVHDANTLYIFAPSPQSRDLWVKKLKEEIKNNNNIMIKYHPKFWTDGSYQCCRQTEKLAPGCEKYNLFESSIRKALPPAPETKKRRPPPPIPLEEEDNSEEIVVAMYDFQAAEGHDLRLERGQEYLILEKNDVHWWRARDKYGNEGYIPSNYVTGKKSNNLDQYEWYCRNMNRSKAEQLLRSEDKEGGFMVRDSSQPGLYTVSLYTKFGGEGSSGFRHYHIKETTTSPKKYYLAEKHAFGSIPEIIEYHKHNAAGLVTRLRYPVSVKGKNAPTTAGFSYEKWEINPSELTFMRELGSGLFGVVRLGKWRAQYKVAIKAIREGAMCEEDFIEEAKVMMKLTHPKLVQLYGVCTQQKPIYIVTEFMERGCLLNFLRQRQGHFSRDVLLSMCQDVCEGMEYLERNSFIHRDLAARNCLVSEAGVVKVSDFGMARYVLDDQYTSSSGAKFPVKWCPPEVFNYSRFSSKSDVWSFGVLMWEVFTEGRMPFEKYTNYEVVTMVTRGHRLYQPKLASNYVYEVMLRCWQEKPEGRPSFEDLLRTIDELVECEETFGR
From the text: as §1, §2, §3, §4, §5, §6, §7

ITK = target: T6, ITK (Homo sapiens, UniProt Q08881); test: as above
T6 construct: purchased Carna 08-181
T6 sequence (Q08881 1-620): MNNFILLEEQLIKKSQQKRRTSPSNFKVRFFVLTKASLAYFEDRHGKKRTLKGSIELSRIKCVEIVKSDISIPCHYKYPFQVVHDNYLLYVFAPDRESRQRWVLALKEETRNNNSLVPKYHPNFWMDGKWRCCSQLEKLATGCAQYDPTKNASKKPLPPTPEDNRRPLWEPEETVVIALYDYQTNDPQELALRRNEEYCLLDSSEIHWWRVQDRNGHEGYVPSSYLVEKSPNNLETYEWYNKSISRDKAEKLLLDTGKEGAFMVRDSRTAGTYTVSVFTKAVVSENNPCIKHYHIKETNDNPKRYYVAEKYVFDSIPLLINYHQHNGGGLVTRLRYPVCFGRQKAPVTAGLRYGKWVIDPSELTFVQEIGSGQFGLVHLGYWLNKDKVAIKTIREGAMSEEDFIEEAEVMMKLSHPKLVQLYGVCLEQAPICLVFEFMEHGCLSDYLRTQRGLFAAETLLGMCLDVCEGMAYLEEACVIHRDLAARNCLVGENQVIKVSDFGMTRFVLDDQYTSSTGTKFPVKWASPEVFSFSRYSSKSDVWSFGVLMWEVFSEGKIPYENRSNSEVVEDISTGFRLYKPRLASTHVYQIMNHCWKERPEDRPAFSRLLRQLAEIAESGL
From the text: as §1, §2, §3, §4, §5, §6, §7

T4 sequence (P00533 669-1210 limits assumed): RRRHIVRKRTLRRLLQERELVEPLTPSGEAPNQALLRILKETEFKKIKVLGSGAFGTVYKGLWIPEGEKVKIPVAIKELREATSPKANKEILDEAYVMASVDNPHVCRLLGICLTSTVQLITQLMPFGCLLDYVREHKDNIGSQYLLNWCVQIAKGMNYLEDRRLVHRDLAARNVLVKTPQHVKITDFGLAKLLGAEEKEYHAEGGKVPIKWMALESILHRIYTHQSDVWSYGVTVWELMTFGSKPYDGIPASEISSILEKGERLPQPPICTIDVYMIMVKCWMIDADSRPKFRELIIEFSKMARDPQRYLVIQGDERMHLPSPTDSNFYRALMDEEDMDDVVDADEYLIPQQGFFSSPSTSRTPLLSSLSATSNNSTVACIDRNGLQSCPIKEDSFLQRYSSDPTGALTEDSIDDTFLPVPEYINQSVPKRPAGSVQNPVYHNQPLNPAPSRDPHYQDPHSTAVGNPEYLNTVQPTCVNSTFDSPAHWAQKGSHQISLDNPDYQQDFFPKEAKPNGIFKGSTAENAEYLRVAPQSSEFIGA
T1 sequence (Q06187 whole entry C481S): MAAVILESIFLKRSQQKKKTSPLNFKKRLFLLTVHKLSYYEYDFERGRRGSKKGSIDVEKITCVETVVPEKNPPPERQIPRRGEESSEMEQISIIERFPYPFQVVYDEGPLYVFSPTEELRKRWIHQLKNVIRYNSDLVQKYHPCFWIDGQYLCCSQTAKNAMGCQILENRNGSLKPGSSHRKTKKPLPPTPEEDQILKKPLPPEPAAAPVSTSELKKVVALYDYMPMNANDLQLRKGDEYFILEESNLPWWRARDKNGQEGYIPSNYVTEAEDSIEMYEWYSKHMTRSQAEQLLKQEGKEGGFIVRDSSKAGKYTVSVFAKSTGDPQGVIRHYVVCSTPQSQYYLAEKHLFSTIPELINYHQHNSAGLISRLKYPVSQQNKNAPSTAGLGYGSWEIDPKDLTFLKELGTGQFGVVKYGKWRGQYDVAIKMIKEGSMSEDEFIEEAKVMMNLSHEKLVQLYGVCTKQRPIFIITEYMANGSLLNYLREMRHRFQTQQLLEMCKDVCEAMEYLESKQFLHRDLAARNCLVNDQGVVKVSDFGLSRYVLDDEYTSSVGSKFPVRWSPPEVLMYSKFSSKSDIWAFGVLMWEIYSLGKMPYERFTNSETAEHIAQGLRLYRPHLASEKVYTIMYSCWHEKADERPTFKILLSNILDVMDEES
T3 sequence (Q06187 whole entry T474I): as the sequence (Q06187 whole entry C481S) above, with T474I, S481C counted along it
T2 sequence (Q06187 whole entry): as the sequence (Q06187 whole entry C481S) above, with S481C counted along it

| SMILES | IC50 (BTK C481S) [nM] | IC50 (BTK kinase) [nM] | IC50 (BTK T474I) [nM] | IC50 (EGFR) [nM] | IC50 (TEC) [nM] | IC50 (ITK) [nM] |
| --- | --- | --- | --- | --- | --- | --- |
| COc1ccc(F)cc1C(=O)NCc1ccc(-c2nc(C(C)C(F)(F)F)cc3[nH]nc(N)c23)cc1 (single isomer, unassigned) [Example 2, N-(4-(3-amino-6-(1,1,1-trifluoropropan-2-yl)-1H-pyrazolo[4,3-c]pyridin-4-yl)benzyl)-5-fluoro-2-methoxybenzamide] | 1 to 5 | 1 to 5 | 50 to 500 | 50 to 500 | 50 to 500 | > 500 |
| COc1ccc(F)cc1C(=O)NCc1ccc(-c2nc(C(C)C(F)(F)F)cc3[nH]nc(N)c23)cc1 (single isomer, unassigned) [Example 3, N-(4-(3-amino-6-(1,1,1-trifluoropropan-2-yl)-1H-pyrazolo[4,3-c]pyridin-4-yl)benzyl)-5-fluoro-2-methoxybenzamide] | 1 to 5 | 1 to 5 | 50 to 500 | > 500 | 50 to 500 | > 500 |
| COc1ccc(F)cc1C(=O)NCc1ccc(-c2nc(C(C)C(F)(F)F)c(-c3ccn(C)n3)c3[nH]nc(N)c23)cc1 (single isomer, unassigned) [Example 6-1, N-(4-(3-amino-7-(1-methyl-1H-pyrazol-3-yl)-6-(1,1,1-trifluoropropan-2-yl)-1H-pyrazolo[4,3-c]pyridin-4-yl)benzyl)-5-fluoro-2-methoxybenzamide] | 1 to 5 | 1 to 5 | 5 to 50 | > 500 | 50 to 500 | > 500 |
| COc1ccc(F)cc1C(=O)NCc1ccc(-c2nc(C(C)C(F)(F)F)c(-c3ccn(C)n3)c3[nH]nc(N)c23)cc1 (single isomer, unassigned) [Example 6-2, N-(4-(3-amino-7-(1-methyl-1H-pyrazol-3-yl)-6-(1,1,1-trifluoropropan-2-yl)-1H-pyrazolo[4,3-c]pyridin-4-yl)benzyl)-5-fluoro-2-methoxybenzamide] | 1 to 5 | 1 to 5 | 5 to 50 | 50 to 500 | 5 to 50 | > 500 |
| COc1ccc(F)cc1C(=O)NCc1ccc(-c2nc(C(C)C(F)(F)F)c(-c3ncccn3)c3[nH]nc(N)c23)cc1 (single isomer, unassigned) [Example 7-1, N-(4-(3-amino-7-(pyrimidin-2-yl)-6-(1,1,1-trifluoropropan-2-yl)-1H-pyrazolo[4,3-c]pyridin-4-yl)benzyl)-5-fluoro-2-methoxybenzamide] | 1 to 5 | 1 to 5 | 50 to 500 | > 500 | 5 to 50 | > 500 |
| COc1ccc(F)cc1C(=O)NCc1ccc(-c2nc(C(C)C(F)(F)F)c(-c3ncccn3)c3[nH]nc(N)c23)cc1 (single isomer, unassigned) [Example 7-2, N-(4-(3-amino-7-(pyrimidin-2-yl)-6-(1,1,1-trifluoropropan-2-yl)-1H-pyrazolo[4,3-c]pyridin-4-yl)benzyl)-5-fluoro-2-methoxybenzamide] | 1 to 5 | 1 to 5 | 50 to 500 | > 500 | 50 to 500 | > 500 |
| COc1ccc(F)cc1C(=O)NCc1ccc(-c2nc(C(C)C(F)(F)F)cc3[nH]nc(N)c23)cc1 (stereo not drawn) [Example 1, N-(4-(3-amino-6-(1,1,1-trifluoropropan-2-yl)-1H-pyrazolo[4,3-c]pyridin-4-yl)benzyl)-5-fluoro-2-methoxybenzamide] | 5 to 50 | 5 to 50 | > 500 | 50 to 500 | > 500 | > 500 |
| COc1ccc(F)cc1C(=O)NCc1ccc(-c2nc(C(C)C(F)(F)F)c(-c3ccn(C)n3)c3[nH]nc(N)c23)cc1 (stereo not drawn) [Example 6, N-(4-(3-amino-7-(1-methyl-1H-pyrazol-3-yl)-6-(1,1,1-trifluoropropan-2-yl)-1H-pyrazolo[4,3-c]pyridin-4-yl)benzyl)-5-fluoro-2-methoxybenzamide] | 1 to 5 | 1 to 5 | 5 to 50 | 50 to 500 | 5 to 50 | > 500 |
| COc1ccc(F)cc1C(=O)NCc1ccc(-c2nc(C(C)C(F)(F)F)c(-c3ncccn3)c3[nH]nc(N)c23)cc1 (stereo not drawn) [Example 7, N-(4-(3-amino-7-(pyrimidin-2-yl)-6-(1,1,1-trifluoropropan-2-yl)-1H-pyrazolo[4,3-c]pyridin-4-yl)benzyl)-5-fluoro-2-methoxybenzamide] | 1 to 5 | 1 to 5 | 50 to 500 | 50 to 500 | 5 to 50 | > 500 |
| COc1ccc(F)cc1C(=O)NCc1ccc(-c2nc(C(C)C(F)(F)F)c(-c3cc(C)[nH]n3)c3[nH]nc(N)c23)cc1 (stereo not drawn) [Example 9, N-(4-(3-amino-7-(5-methyl-1H-pyrazol-3-yl)-6-(1,1,1-trifluoropropan-2-yl)-1H-pyrazolo[4,3-c]pyridin-4-yl)benzyl)-5-fluoro-2-methoxybenzamide] | 5 to 50 | 1 to 5 | 50 to 500 | 50 to 500 | 50 to 500 | > 500 |
| COc1ccc(F)cc1C(=O)NCc1ccc(-c2ncc(-c3ccccn3)c3[nH]nc(N)c23)cc1 [Example 15, N-(4-(3-amino-7-(pyridin-2-yl)-1H-pyrazolo[4,3-c]pyridin-4-yl)benzyl)-5-fluoro-2-methoxybenzamide] | ≤ 1 | ≤ 1 | 50 to 500 | 50 to 500 | 5 to 50 | > 500 |
